Holding throughout (assay): Cell viability (MTS) assay, targeted toxin mediated cell killing
Common to all, as to assay type: cell-based, human
Holding throughout (conditions): read-out: IC50, 1500 nM SO1861, toxin or toxin conjugate titrated + 1500 nM unconjugated SO1861

In experiment [1] the test system is HeLa cells.
In experiment [2] the test system is CaSki cells.
Experiment [3] has as its system JIMT-1 cells.

Experimental findings from patent US20230256111A1, “C[…] ADC OR AN AOC COMPRISING A VHH, AND A SAPONIN OR A LIGAND-SAPONIN CONJUGATE” (SAPREME TECHNOLOGIES B.V., priority 2020, published 2023) are described below.

Usually IC50 stands for the concentration at which inhibition is half-maximal.

Consider Saporin, for which the IC50 in experiment [1] turned out to be 0.03 nM; in experiment [2], 0.015 nM; in experiment [3], 0.03 nM.
